Data: ChEMBL document CHEMBL3885881, “DrugMatrix”

Species: Rattus norvegicus
Assay: DrugMatrix - Regimen: Daily Repeat
Type: toxicity, organism-based, Sprague-Dawley
Parameters: regimen Daily Repeat, gender Male, age 6-8 weeks
Conditions: in vivo, po, route oral GAVAGE, vehicle .5 % CMC; for ALANINE AMINOTRANSFERASE / ALBUMIN / ALKALINE PHOSPHATASE / ASPARTATE AMINOTRANSFERASE / BLOOD UREA NITROGEN / CARBON DIOXIDE / CHLORIDE / CHOLESTEROL / CREATINE PHOSPHOKINASE / CREATININE / GLUCOSE / LACTATE DEHYDROGENASE / LIPASE / PHOSPHORUS / POTASSIUM / SODIUM / TOTAL BILIRUBIN / TOTAL PROTEIN / URIC ACID: tissue Plasma; for ABSOLUTE BASOPHIL / ABSOLUTE EOSINOPHIL / ABSOLUTE LYMPHOCYTE / ABSOLUTE MONOCYTE / ABSOLUTE SEGMENTED NEUTROPHIL / BASOPHIL / EOSINOPHIL / ERYTHROCYTE COUNT / HEMATOCRIT / HEMOGLOBIN / LEUKOCYTE COUNT / LYMPHOCYTE / MEAN CORPUSCULAR HEMOGLOBIN / MEAN CORPUSCULAR HEMOGLOBIN CONCENTRATION / MEAN CORPUSCULAR VOLUME / MONOCYTE / NEUTROPHIL / NUCLEATED RED BLOOD CELLS / PLATELET COUNT: tissue Blood
[1] = 88 mg/kg, 72 h, dose level Low, time 3 day
[2] = 88 mg/kg, 120 h, dose level Low, time 5 day
[3] = 2000 mg/kg, 72 h, dose level High, time 3 day

SMILES: CC(C)[C@H](N)C(=O)OCCOCn1cnc2c(=O)[nH]c(N)nc21 [VALACYCLOVIR]
- ALANINE AMINOTRANSFERASE [1]: 55 u/L
- ALBUMIN [1]: 4.33 G/DL
- ALKALINE PHOSPHATASE [1]: 415.33 u/L
- ASPARTATE AMINOTRANSFERASE [1]: 100.67 u/L
- BLOOD UREA NITROGEN [1]: 14.67 mg/dL
- CARBON DIOXIDE [1]: 27 mmol/L
- CHLORIDE [1]: 101 MEQ/L
- CHOLESTEROL [1]: 77 mg/dL
- CREATINE PHOSPHOKINASE [1]: 717.67 u/L
- CREATININE [1]: 0.2 mg/dL
- GLUCOSE [1]: 147.33 mg/dL
- LACTATE DEHYDROGENASE [1]: 667.67 u/L
- LIPASE [1]: 10.67 u/L
- PHOSPHORUS [1]: 12.5 mg/dL
- POTASSIUM [1]: 6.48 MEQ/L
- SODIUM [1]: 144.3 MEQ/L
- TOTAL BILIRUBIN [1]: 0.2 mg/dL
- TOTAL PROTEIN [1]: 6.23 G/DL
- URIC ACID [1]: 1.4 mg/dL
- ABSOLUTE BASOPHIL [2]: 0 CELLS/uL
- ABSOLUTE EOSINOPHIL [2]: 94 CELLS/uL
- ABSOLUTE LYMPHOCYTE [2]: 9072.33 CELLS/uL
- ABSOLUTE MONOCYTE [2]: 117.33 CELLS/uL
- ABSOLUTE SEGMENTED NEUTROPHIL [2]: 1283 CELLS/uL
- BASOPHIL [2]: 0%
- EOSINOPHIL [2]: 0.67%
- ERYTHROCYTE COUNT [2]: 5.42 x10E6/uL
- HEMATOCRIT [2]: 33.93%
- HEMOGLOBIN [2]: 13.17 G/DL
- LEUKOCYTE COUNT [2]: 10.57 x10E3/uL
- LYMPHOCYTE [2]: 86.33%
- MEAN CORPUSCULAR HEMOGLOBIN [2]: 24.3 pg
- MEAN CORPUSCULAR HEMOGLOBIN CONCENTRATION [2]: 38.83 G/DL
- MEAN CORPUSCULAR VOLUME [2]: 62.57 fL
- MONOCYTE [2]: 1.33%
- NEUTROPHIL [2]: 11.67%
- NUCLEATED RED BLOOD CELLS [2]: 0 /100WBC
- PLATELET COUNT [2]: 1317.67 x10E3/uL
- ALANINE AMINOTRANSFERASE [2]: 58.33 u/L
- ALBUMIN [2]: 4.43 G/DL
- ALKALINE PHOSPHATASE [2]: 393 u/L
- ASPARTATE AMINOTRANSFERASE [2]: 91 u/L
- BLOOD UREA NITROGEN [2]: 18 mg/dL
- CARBON DIOXIDE [2]: 28.33 mmol/L
- CHLORIDE [2]: 103.33 MEQ/L
- CHOLESTEROL [2]: 75.33 mg/dL
- CREATINE PHOSPHOKINASE [2]: 215.67 u/L
- CREATININE [2]: 0.21 mg/dL
- GLUCOSE [2]: 137.33 mg/dL
- LACTATE DEHYDROGENASE [2]: 175.67 u/L
- LIPASE [2]: 9.33 u/L
- PHOSPHORUS [2]: 13.03 mg/dL
- POTASSIUM [2]: 7.1 MEQ/L
- SODIUM [2]: 147.83 MEQ/L
- TOTAL BILIRUBIN [2]: 0.23 mg/dL
- TOTAL PROTEIN [2]: 6.33 G/DL
- URIC ACID [2]: 1.57 mg/dL
- ABSOLUTE BASOPHIL [3]: 0 CELLS/uL
- ABSOLUTE EOSINOPHIL [3]: 83 CELLS/uL
- ABSOLUTE LYMPHOCYTE [3]: 8794.67 CELLS/uL
- ABSOLUTE MONOCYTE [3]: 95 CELLS/uL
- ABSOLUTE SEGMENTED NEUTROPHIL [3]: 994 CELLS/uL
- BASOPHIL [3]: 0%
- EOSINOPHIL [3]: 1%
- ERYTHROCYTE COUNT [3]: 4.99 x10E6/uL
- HEMATOCRIT [3]: 31.53%
- HEMOGLOBIN [3]: 12.63 G/DL
- LEUKOCYTE COUNT [3]: 9.97 x10E3/uL
- LYMPHOCYTE [3]: 88%
- MEAN CORPUSCULAR HEMOGLOBIN [3]: 25.3 pg
- MEAN CORPUSCULAR HEMOGLOBIN CONCENTRATION [3]: 40.1 G/DL
- MEAN CORPUSCULAR VOLUME [3]: 63.07 fL
- MONOCYTE [3]: 1%
- NEUTROPHIL [3]: 10%
- NUCLEATED RED BLOOD CELLS [3]: 0 /100WBC
- PLATELET COUNT [3]: 1175 x10E3/uL
- ALANINE AMINOTRANSFERASE [3]: 43.33 u/L
- ALBUMIN [3]: 4 G/DL
- ALKALINE PHOSPHATASE [3]: 329.67 u/L
- ASPARTATE AMINOTRANSFERASE [3]: 81.67 u/L
- BLOOD UREA NITROGEN [3]: 79.33 mg/dL
- CARBON DIOXIDE [3]: 22.67 mmol/L
- CHLORIDE [3]: 101 MEQ/L
- CHOLESTEROL [3]: 118.67 mg/dL
- CREATINE PHOSPHOKINASE [3]: 274.33 u/L
- CREATININE [3]: 1.22 mg/dL
- GLUCOSE [3]: 158.33 mg/dL
- LACTATE DEHYDROGENASE [3]: 182 u/L
- LIPASE [3]: 10.67 u/L
- PHOSPHORUS [3]: 10.07 mg/dL
- POTASSIUM [3]: 5.9 MEQ/L
- SODIUM [3]: 143.87 MEQ/L
- TOTAL BILIRUBIN [3]: 0.23 mg/dL
- TOTAL PROTEIN [3]: 6.3 G/DL
- URIC ACID [3]: 1.2 mg/dL
